Tests used:
[1] = biological target: T1, a-thrombin (Homo sapiens, UniProt P00734); assay: Thrombin-induced clotting of purified fibrinogen; format: biochemical; conditions: preincubation with a-thrombin 0, 30, 60 minutes before fibrinogen
Experimental: The clotting time of fibrinogen following the addition of the thrombin/inhibitor complex was measured optically using the Coag-A-Mate XC automated coagulometer (General Diagnostics, Organon Technica, Oklahoma City, Okla.).
This inhibition is reflected as an increase in the relative clotting time which is the ratio of the […]. The control clotting time in this assay is 16.2±0.78 sec.

[2] = test system: washed human platelets; assay: Thrombin-induced aggregation in washed human platelets; format: cell-based
Experimental: Washed human platelets were prepared from freshly isolated venous blood obtained from normal, healthy volunteers who had not taken any medication which might affect platelet function, according to the procedure of Connolly, T. M. et al., J. Biol. Chem., 267: 6893. (1992). Inhibitors, were added in a volume of […] to […] of prewarmed washed platelets in a siliconized glass cuvette (Chronolog Corp., Hayertown, Pa.) followed by […] of 0.25M CaCl2. The rate and extent of aggregation were measured for 5-15 minutes by the change in light transmission in a stirred cuvette, following the addition of […] of a-thrombin (final concentration 2 nM), using a Chronolog Whole Blood Aggregometer equipped with the Aggro/Link data acquisition system (Chronolog Corp., Hayertown, Pa.).

[3] = test system: Male Harlan Sprague Dawley rats; assay: Venous stasis model in rats; format: in vivo; conditions: rat; for % Clot: mean ± S.E.M.
Experimental: This is one of the most commonly used models in the evaluation of antithrombotic compounds. Hladovec, J. Thromb. […] Talbot, M. D., et. al., Thromb.
Male Harlan Sprague Dawley rats (420-450 g) were acclimated at least 72 hours prior to use. The animals were fasted for 12 hours prior to surgery with free access to water. The animals were anesthetized with a sodium pentobarbital (Nembutal) given intraperitoneally at a dose of 50 mg/kg body weight and placed on a isothermal pad to maintain body temperature. The level of anesthesia was monitored every 15 minutes by: neuro-response to a tail pinch, respiration and body core temperature. The desired depth of surgical anesthesia was maintained by administering subsequent doses (5 mg/kg) intravenously. The left femoral artery was catheterized with polyethylene tubing (PE50) using standard procedures for blood pressure monitoring and blood sampling. The left and right femoral veins were catheterized with PE50 tubing for delivery of anesthetic and test compounds respectively.
Blood pressure, heart rate, core temperature and respiration were monitored continuously.
The abdomen of the animals is opened by making a vertical midline incision followed by isolation of the IVC using dissection. The segment extends from below the renal to above the iliac vessels (about 2 cm in length). The peripheral blood vessels are tied off and a ligature is loosely placed at the distal and proximal ends of the isolated segment. Rabbit brain thromboplastin (RBT)(Sigma Chemical Co., St. Louis Mo.) is prepared by resuspending the contents of the vial with 2 mL of sterile saline pre-warmed to 37° C. At the end of the 30 minute infusion period, RBT is systemically administered as a bolus injection (1.5 mL/kg) via the femoral catheter. Stasis is induced within the isolated IVC segment by securing the proximal and distal ligature 10 sec following the administration of the RBT. Following a 30 minute period of stasis the tied off IVC segment is removed and the contents weighed. Clot formation was defined as %clot: [Weight of the isolated clot/(Weight of the intact segment-the weight of the empty segment)] ×100. This method was used to correct for slight differences in segment size and fluid content.
Following termination of the experiment the animal was euthanized with a 120 mg/kg dose of Nembutal.

[4] = biological target: T2, clot-bound a-thrombin (Homo sapiens, UniProt P00734); assay: Inhibition of clot-bound thrombin (FPA generation in citrated plasma); format: biochemical
T2 construct: from tissue; host or cells: washed clots formed from citrated plasma by adding CaCl2
Experimental: Plasma clots were formed around wire hooks by the addition of CaCl2 (final concentration, 25 mM) to 500 μl aliquots of citrated plasma. After aging the clots for 60 minutes at 37° C. with constant agitation, the clots were washed 10 times with 2 ml aliquots of 0.1M NaCl buffered with 0.05M Tris-HCL, pH 7.4 over an 18 hour period. The washed clots were then incubated in 1 ml aliquots of citrated plasma for 60 minutes at 37° C. in the absence or presence of the various inhibitors. At timed intervals, 100 μl aliquots were removed and the reaction was terminated by the addition of the irreversible serine protease inhibitor, D-phenylalanyl-prolinyl-argininyl-CH2 Cl.
Unreacted fibrinogen was precipitated with ethanol, and the ethanol supernatants were then assayed for FPA.

[5] = biological target: thrombin (Homo sapiens, UniProt P00734); conditions: reported in literature; cited from earlier work
[6] = biological target: T1, a-thrombin; assay: Inhibition of fluid-phase thrombin (FPA generation in citrated plasma); format: biochemical; parameters: Purified human a-thrombin; purchased Enzyme Research Laboratories, Inc; conditions: 60 min, 37° C., compound 8 18.75 nM, Hirulog-1 500 nM, rHIR 4 nM, FIG. 5A
Experimental: I. et.al. J. Clin. Invest., 86: 385-391 (1990). Human a-thrombin (2 U/ml) was incubated with citrated plasma for 60 minutes at 37° C. in the absence or presence of varying concentrations of each of the inhibitors. At timed intervals, 100 μl aliquots were removed and the reaction was terminated by the addition of […] (5 μM, final concentration). Unreacted fibrinogen was then precipitated with ethanol, and the ethanol supernatants were assayed for fibrinopeptide A (FPA). Thrombin addition to plasma results in rapid FPA generation which reaches a plateau in minutes as the thrombin is complexed and inactivated by fluid-phase antiproteases.(e.g. antithrombin III).

(D-Phe)-Pro-Arg-Pro-(Gly)4 -Asn-Gly-Asp-Phe-Glu-Glu-Ile-Pro-Glu-Glu-Tyr-Leu-OH [Hirulog-1]
proteolytic inactivation by thrombin on preincubation [1]: sensitive to proteolytic degradation | persistence of inhibition of aggregation over the 15 minute assay ([2]; 20 nM (compound 8), same or higher concentrations (Hirulog-1), FIG. 4): did not cause sustained inhibition | IC50 ([2]; a-thrombin 2 nM, extent of aggregation over 1 minute, mean ± SD of three): 16 ± 3 nM | % Clot ([3]; 0.1 mg/kg i.v. bolus + 40 mg/kg/min i.v. infusion): 25.75 ± 3.71% | % Clot ([3]; 0.1 mg/kg i.v. bolus + 60 mg/kg/min i.v. infusion): 26.50 ± 3.59% | % Clot ([3]; 0.1 mg/kg i.v. bolus + 80 mg/kg/min i.v. infusion): 25.75 ± 0.41% | effect on venous thrombus formation induced by stasis and thromboplastin ([3]; summary in words): did not have any effect | inhibition of clot-bound a-thrombin-mediated FPA generation ([4]; citrated human plasma, 60 min, 37° C., compound 8 18.75 nM, Hirulog-1 500 nM, rHIR 4 nM, FIG. 5B): only transiently inhibited FPA generation | inhibition of clot-bound versus fluid-phase thrombin at 60 minutes incubation ([4]; percent inhibition of FPA generation at 60 min, FIG. 6): less inhibitory activity against clot-bound thrombin | Ki [5]: 2.56 nM | inhibition of fluid-phase a-thrombin-mediated FPA generation [6]: only transient inhibition

From patent publication US5670479A, “α-ketoamide derivatives as inhibitors of thrombosis” (Corvas International, Inc., priority 1994, dated 1997)
